The text below walks through data of ChEMBL document CHEMBL3414440, “Pure enantiomers of benzoylamino-tranylcypromine: LSD1 inhibition, gene modulation in human leukemia cells and effects on clonogenic potential of murine promyelocytic blasts” (Eur J Med Chem, 2015).

Data set [1] deals with T1, Amine oxidase [flavin-containing] B (Homo sapiens, UniProt P27338).
T1 sequence (P27338 whole entry): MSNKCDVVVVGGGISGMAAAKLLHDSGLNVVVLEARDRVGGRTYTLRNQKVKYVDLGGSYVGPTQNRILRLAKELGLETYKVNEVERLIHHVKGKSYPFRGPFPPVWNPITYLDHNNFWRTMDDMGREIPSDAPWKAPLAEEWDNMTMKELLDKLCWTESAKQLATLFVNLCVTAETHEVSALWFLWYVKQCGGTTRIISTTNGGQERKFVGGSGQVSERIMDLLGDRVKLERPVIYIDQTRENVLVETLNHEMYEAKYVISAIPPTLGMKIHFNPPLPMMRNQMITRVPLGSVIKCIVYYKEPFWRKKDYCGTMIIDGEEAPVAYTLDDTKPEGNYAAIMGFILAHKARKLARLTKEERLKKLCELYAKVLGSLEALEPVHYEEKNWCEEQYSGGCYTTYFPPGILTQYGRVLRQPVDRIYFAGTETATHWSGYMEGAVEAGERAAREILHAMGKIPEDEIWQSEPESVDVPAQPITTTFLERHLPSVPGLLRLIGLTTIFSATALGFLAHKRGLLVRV
Description: Inhibition of human recombinant MAOB expressed in Pichia pastoris incubated for 15 mins prior to substrate addition measured after 30 mins by luminescence assay

The target of data set [2] is T2, Amine oxidase [flavin-containing] A (Homo sapiens, UniProt P21397).
T2 sequence (P21397 whole entry): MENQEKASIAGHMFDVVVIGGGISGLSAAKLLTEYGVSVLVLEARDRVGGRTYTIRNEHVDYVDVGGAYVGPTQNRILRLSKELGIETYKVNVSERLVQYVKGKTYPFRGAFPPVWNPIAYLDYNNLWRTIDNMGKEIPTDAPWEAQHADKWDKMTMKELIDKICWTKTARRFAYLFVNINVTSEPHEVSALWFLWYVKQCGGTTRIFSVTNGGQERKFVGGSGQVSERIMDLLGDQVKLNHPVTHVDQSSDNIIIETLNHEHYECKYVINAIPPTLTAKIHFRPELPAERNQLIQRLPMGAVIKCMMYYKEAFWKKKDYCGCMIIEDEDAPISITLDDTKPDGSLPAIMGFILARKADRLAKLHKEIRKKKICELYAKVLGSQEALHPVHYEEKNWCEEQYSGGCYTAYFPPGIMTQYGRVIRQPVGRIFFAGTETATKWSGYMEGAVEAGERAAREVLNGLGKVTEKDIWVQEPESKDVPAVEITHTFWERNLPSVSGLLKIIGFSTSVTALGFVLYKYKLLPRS
Description: Inhibition of human recombinant MAOA expressed in Pichia pastoris incubated for 15 mins prior to substrate addition measured after 30 mins by luminescence assay

In data set [3] the target is T3, MAO-B (amine oxidase [flavin-containing] B) (Homo sapiens, UniProt P27338).
T3 sequence (P27338 whole entry): T1 sequence (P27338 whole entry)
Briefly: Inhibition of human recombinant MAOB expressed in Pichia pastoris at 100 uM incubated for 15 mins prior to substrate addition measured after 30 mins by luminescence assay.

Data set [4] is described as follows: cells. To be noted: Mus musculus, Leukemia cell, read-out: INH.
Description: Inhibition of colony formation in mouse acute myeloid Leukemia cell assessed as colony forming unit at 0.25 uM after 7 days relative to control

As usually defined, the IC50 is the concentration that inhibits the measured activity by half. Low readings indicate higher potency, high ones lower potency. Take `N[C@H]1C[C@H]1c1cccc(NC(=O)c2ccccc2)c1`: the IC50 in data set [1] worked out at 80100 nM; in data set [2], 70 nM.
Regarding `N[C@H]1C[C@@H]1c1cccc(NC(=O)c2ccccc2)c1`, the inhibition at 0.5 h, 100 µM in data set [3] is 29%. 1370 nM corresponded to half-maximal inhibition in data set [2] (IC50).
For `N[C@@H]1C[C@@H]1c1cccc(NC(=O)c2ccccc2)c1` the same measures were 34% and 650 nM.
`N[C@H]1C[C@@H]1c1ccc(NC(=O)c2ccccc2)cc1`: the inhibition at […] in data set [4] was determined as 64%.
Consider `N[C@@H]1C[C@H]1c1ccc(NC(=O)c2ccccc2)cc1`, for which the inhibition at […] in data set [4] turned out to be 83.4%.
Same read-out and setting: as for `N[C@H]1C[C@H]1c1ccc(NC(=O)c2ccccc2)cc1`, the figure is 83.8%.
As for `N[C@@H]1C[C@H]1c1cccc(NC(=O)c2ccccc2)c1`, the IC50 is 84700 nM in data set [1] and 1540 nM in data set [2].
As for `N[C@@H]1C[C@@H]1c1ccc(NC(=O)c2ccccc2)cc1`, the inhibition at […] in data set [4] amounted to 72%.
